From patent publication US11259522B2, “Control of resistant pests” (priority 2017, dated 2022)
Values after ≈ are worked out from the molar mass of the structure shown. Values joined by “and” are separate entries in the source; they are usually repeats but may differ in a detail not shown here. Identical values can stand only once. Like-named read-outs stand apart in the source and are kept apart here.

Key:
[1] = tested on: Aedes aegypti Liverpool strain (insecticide susceptible, LVP) L3 larvae; test: Mosquito larval dose response assay, LVP strain; settings: read-out: Lethal Concentration (LC50) LVP Strain
[2] = tested on: Aedes aegypti PRS Puerto Rican strain (synthetic pyrethroid resistant) L3 larvae; test: Mosquito larval dose response assay, PRS strain; settings: read-out: Lethal Concentration (LC50) PRS Strain
[3] = tested on: Rhyzopertha dominica strain QRD1440 (resistant to OP protectants and pyrethroids); test: Grain protectant bioassay on treated wheat, resistant lesser grain borer; settings: Example 5, QRD1440, 1 ppm on wheat, replicates A, B, C
[4] = tested on: M. persicae (green peach aphid) insecticide-susceptible population; test: Leaf dip bioassay, green peach aphid, susceptible population; format: in vivo, Myzus persicae
Description: (§1) Each colony was maintained separately on bok choi plants ([…]) within an exclusion cage in a constant temperature room at 24° C. with a photoperiod of 16:8 LD.
(§2) Laboratory bioassays were used to determine the efficacy of flavesone against M. persicae following the leaf dip method described in Moores et al. (1994, Pesticide Biochemistry and Physiology, 49, 114-120). A pilot study was first conducted which confirmed that the leaf dip method was appropriate to elicit a clear dose response for Flavocide 500EW against M. persicae, and to determine the appropriate rate range and timing of mortality assessments (scored at 24, 48, 72 & 96 hours) (data not shown).
(§3) Bioassays were then conducted to assess the efficacy of flavesone against a susceptible and resistant population of M. persicae, and to calculate LC values. The efficacy of a conventional insecticide, pirimicarb, was tested for comparison. Nine concentrations of flavesone ranging from 1×10^−3 to 10 times the proposed field rate (Table 15), and six concentrations of pirimicarb were serially diluted and tested, along with a water control, against the susceptible and resistant aphid populations. Leaf discs (25 mm diameter) cut from bok choi leaves were submerged for 1 second in the insecticide solutions, or in the water control, and placed adaxial side up on 10 g/L agar in 35 mm petri dishes. Six replicate leaf discs were prepared per treatment. Once leaves were air-dry, eight M. persicae nymphs were transferred to each insecticide-dipped leaf disc using a fine-haired paintbrush.
(§4) After aphid introduction, each petri dish was inverted onto a lid containing a 25 mm diameter filter paper to control humidity. All petri dishes were then placed into an incubator held at 18° C.±2° C. with a photoperiod of 16:8 LD cycle. At 48 & 96 hours, aphids were scored as alive (vibrant and moving freely), dead (not moving over a 5 second period), or incapacitated (inhibited movement).
(§5) Dose-response curves were generated by plotting percentage mortality against log concentration. Mortality data was analysed using a logistic regression model with random effects. Logistic regression is suited for the analysis of binary response data (i.e. dead/alive) with the random effect component of the model controlling for the non-independence of mortality scores within replicates. […] Population differences were tested by comparing the change in model deviance with and without the population factor (different regression intercepts for each population). Differences in regression slopes between populations were tested by comparing the change in model deviance with and without the population×dose interaction term.

[5] = tested on: M. persicae (green peach aphid) population resistant to carbamates and synthetic pyrethroids; test: Leaf dip bioassay, green peach aphid, resistant population; format: in vivo, Myzus persicae; settings: Resistant population; 0.025-2500.0 mg a.i./L; 48 and 96 hours
Description: as §1, §2, §3, §4, §5

[6] = Susceptible population, 96 hours exposure

Row | Structure (SMILES) | LC50 ([1]; 24 h) | LC50 ([1]; 48 h) | LC50 ([1]; 72 h) | LC50 ([2]; 24 h) | LC50 ([2]; 48 h) | LC50 ([2]; 72 h) | F1 Progeny count No. dead/total ([3]; further 6 weeks) | 14 Day adult mortality No. dead (total) [3] | LC50 ([4]; Myzus persicae, foliar, 96 h, read-out: LC50 (mg a.i./L)) | LC90 (mg a.i./L) [4, 6] | LC99 (mg a.i./L) [4, 6] | mortality observed [5]
1 | CC1(C)[C@H](C(=O)O[C@H](C#N)c2cccc(Oc3ccccc3)c2)[C@@H]1C=C(Br)Br [Deltamethrin, deltamethrin, reference compound] | 0.0119 µg/mL (≈ 0.0236 µM) | 0.0049 µg/mL (≈ 0.0097 µM) | 0.0037 µg/mL (≈ 0.00732 µM) | 0.0522 µg/mL (≈ 0.103 µM) | 0.0501 µg/mL (≈ 0.0992 µM) | 0.0412 µg/mL (≈ 0.0816 µM) | 0/142 and 0/79 and 2/292 | 1/50 (2×) and 0/50 | – | – | – | –
2 | CC1(C)C(C=C(Cl)Cl)C1C(=O)OCc1cccc(Oc2ccccc2)c1 (stereo not drawn) [Permethrin, permethrin] | 0.0219 µg/mL (≈ 0.056 µM) | 0.0162 µg/mL (≈ 0.0414 µM) | 0.0166 µg/mL (≈ 0.0424 µM) | 0.164 µg/mL (≈ 0.42 µM) | 0.15 µg/mL (≈ 0.385 µM) | 0.128 µg/mL (≈ 0.327 µM) | – | – | – | – | – | –
3 | Cc1nc(N(C)C)nc(OC(=O)N(C)C)c1C [Pirimicarb, pirimicarb, reference compound] | – | – | – | – | – | – | – | – | 18.5 µg/mL (≈ 77.6 µM) | 78.9 mg a.i./L | 384 mg a.i./L | Very low mortality
